# Experiments:
# [1] = tested on: skin of Lmna^G609G/G609G mice; test: Histology of skin (epidermis, subcutaneous fat layers); type: in vivo, mouse; details: 13 weeks; for subcutaneous fat layers, Mean / subcutaneous fat layers: 20 mg kg^–1 i.p.
# Experimental: For UPCP injection, 14-day-old Lmna^G609G/G609G mice were injected intraperitoneally with either PBS or UPCP (20 mg kg^–1, every other day) and wild-type mice were injected with PBS. […] Bodyweight and lifespan were monitored after UPCP treatment. The survival rate was analyzed by the Kaplan–Meier method. We only included mice that were of sufficient bodyweight at the start of the experiment, typically at least 80% of the average littermate weight of the same sex and genotype. All animals meeting criteria for inclusion were then divided randomly into three groups according to genotype (Lmna^+/+, Lmna^G609G/G609G-Mock and Lmna^G609G/G609G-UPCP).
# For histological analyses, mice of the indicated genotypes were perfused with PBS, then with 4% paraformaldehyde (PFA). Whole organs were incubated in 4% PFA at 4 °C for 16 h. All samples were paraffin embedded and sectioning by Servicebio. Subsequently, the tissues were deparaffinized and rehydrated before hematoxylin-eosin (HE) or Masson staining or immunohistochemistry (IHC). HE staining was performed using an HE Kit (Absin, catalog no. abs9217), and Masson staining was performed using Masson’s Trichrome Stain Kit (Absin, catalog no. abs9347) according to the manufacturer’s instructions. The thickness of the layers or the areas of fibrosis in the tissues were calculated using ImageJ software by a blinded investigator. For IHC, the sections were completed by the Servicebio. The images were acquired by a microscope (Leica DMi8) and analyzed with Leica Application Suite X v.3.6.0.24 (Leica). For BubR1, cytoplasmic staining in cells was scored on the intensity of staining and the proportion of positive cells by a blinded investigator. The intensity of the staining was graded as 0 (negative, no color), 1 (low positive, light yellow), 2 (positive, brown yellow) or 3 (high positive, brown), and the number of positive cells was graded as 0 (<5%), 1 (5–25%), 2 (25–50%), 3 (51–75%) or 4 (>75%). The final score was defined as staining number score multiplied by staining color score. For lamin B1, p21 or IL-6, the proportion of positive cells was used to quantify the expression of protein in tissues by a blinded investigator.
# HGADFN003 cells = test: γH2AX-53BP1 foci in HGADFN003 cells; type: cell-based, human
# Experimental: Immunofluorescence was performed as described previously. Cells were plated on cover slips in 12-well plates, left overnight before the treatment. Cells were fixed in 1% formaldehyde in culture medium for 10 min at 37 °C and permeabilized with 0.2% Triton X-100 in PBS for 10 min at room temperature. Cells were washed twice in PBS and blocked for 1 h with 5% BSA in PBS and then incubated with primary antibodies at 4 °C overnight, washed three times in PBS and incubated with secondary antibodies for 1 h at room temperature. Cell nuclei were counterstained with a 500 nM concentration of 4,6-diamidino-2-phenylindole (DAPI) (Sigma). Images were acquired by a fluorescence microscope (OLYMPUS FV-1000, Carl Zeiss LSM880 or Leica DMi8) and analyzed with software NIS-Elements AR v.5.0.1 (Nikon), FLUOVIEW v.4.2b (OLYMPUS), ZEN v.2.3 SP1 (Carl Zeiss) and Leica Application Suite X v.3.6.0.24 (Leica). Cells were quantified by investigators who were blinded to the identity of the analyzed cell.
# senescent IMR90 cells = test: SA-β-gal staining of DNA damage-induced senescent IMR90 cells; type: cell-based, human; details: for SA-β-gal positive cells: UPCP 6 μM 5 days
# Experimental: Fibroblasts from patients with HGPS were obtained from The Progeria Research Foundation Cell and Tissue Bank (http://www.progeriaresearch.org). The following fibroblasts were used: HGADFN003, HGADFN167, HGMDFN090 and HGFDFN168. Human dermal fibroblasts (GM00038 and AG09602) were obtained from Coriell Cell Repository (https://catalog.coriell.org). These cells were characterized by DNA fingerprinting and isozyme detection and were tested by a MycoBlue Mycoplasma Detector (Vazyme Biotech) to exclude mycoplasma contamination before the experiments. […] HGADFN003, HGADFN167, HGMDFN090, HGFDFN168, GM00038 and AG09602 were cultured in DMEM medium with 15% (v/v) fetal bovine serum (VivaCell). All cell lines were grown at 37 °C with 5% CO2 and IMR90, CRL-1474, HGADFN003, HGADFN167, HGMDFN090, HGFDFN168, GM00038 and AG09602 were cultured with 5% O2. For bleomycin-induced senescence, IMR90 cells were incubated with the culture medium containing 20 μg ml^–1 Bleomycin (Selleck, catalog no. S1214) for 2 h and analyzed 10 days later, or as otherwise indicated. For doxorubicin-induced senescence, IMR90 cells were treated twice with 100 nM Doxorubicin (Selleck, catalog no. S1208) with a 2 day interval and analyzed 10 days later, or as otherwise indicated. For ionizing radiation (IR)-induced senescence, IMR90 cells were exposed to 10 Gy Gamma rays, and analyzed 10 days later, or as otherwise indicated, the control IMR90 cells were mock irradiated. For etoposide-induced senescence, IMR90 cells incubated with the culture medium containing 10 μM Etoposide (Sigma, catalog no. E1383) for 48 h and analyzed 10 days later, or as otherwise indicated.
# SA-β-gal staining was performed as previously described. Cells were fixed in 0.5% glutaraldehyde for 15 min at room temperature, washed three times with PBS (pH 6.0) containing 1 mM MgCl2 and exposed overnight 37 °C to containing 1 mg ml^–1 5-bromo-4-chloro-3-indolyl-β-D-galactopyranoside (MCE, catalog no. HY-15934), 0.12 mM potassium ferrocyanide (Sigma, catalog no. P3289), 0.12 mM potassium ferricyanide (Sigma, catalog no. P8131) and 1 mM MgCl2 PBS buffer (pH 6.0). Cells were washed three times with H2O and observed under a microscope (OLYMPUS CKX53). SA-β-gal positive cells were quantified by investigators who were blinded to the identity of the analyzed cell.
# [2] = 20 mg kg^–1 i.p. every other day
substance,measurement,setting,value
"H-YGRKKRRQRRRYNLRSRTVLCGTCGQPADKASASGSGAQSPQNCSIM-OH (cysteines drawn unpaired) [UPCP, unique progerin C-terminal peptide]",dermal fat loss,[1]; [2],improved
same,epidermal thinning,[1]; [2],improved
same,"subcutaneous fat layers, Mean","[1]; sample 1, mean of 3 measurements",0.2193 mm
same,subcutaneous fat layers,"[1]; sample 1, measurement 1",0.2 mm
same,subcutaneous fat layers,"[1]; sample 1, measurement 2",0.243 mm
same,subcutaneous fat layers,"[1]; sample 1, measurement 3",0.215 mm
same,"subcutaneous fat layers, Mean","[1]; sample 2, mean of 3 measurements",0.1593 mm
same,subcutaneous fat layers,"[1]; sample 2, measurement 1",0.146 mm
same,subcutaneous fat layers,"[1]; sample 2, measurement 2",0.185 mm
same,subcutaneous fat layers,"[1]; sample 2, measurement 3",0.147 mm
same,"subcutaneous fat layers, Mean","[1]; sample 3, mean of 3 measurements",0.1467 mm
same,subcutaneous fat layers,"[1]; sample 3, measurement 1",0.174 mm
same,subcutaneous fat layers,"[1]; sample 3, measurement 2",0.153 mm
same,subcutaneous fat layers,"[1]; sample 3, measurement 3",0.113 mm
same,γH2AX and 53BP1 positive cells (/Mock),"HGADFN003 cells; HGADFN003, relative to Mock = 100, replicate 1",45%
same,γH2AX and 53BP1 positive cells (/Mock),"HGADFN003 cells; HGADFN003, relative to Mock = 100, replicate 2",55%
same,γH2AX and 53BP1 positive cells (/Mock),"HGADFN003 cells; HGADFN003, relative to Mock = 100, replicate 3",50%
same,γH2AX-53BP1 foci,HGADFN003 cells; HGPS fibroblasts,lower level of γH2AX-53BP1 foci
same,SA-β-gal positive cells,"senescent IMR90 cells; BLM (bleomycin 20 μg/mL 2 h), replicate 1",71.6418%
same,SA-β-gal positive cells,"senescent IMR90 cells; BLM (bleomycin 20 μg/mL 2 h), replicate 2",81.25%
same,SA-β-gal positive cells,"senescent IMR90 cells; BLM (bleomycin 20 μg/mL 2 h), replicate 3",74.0741%
same,SA-β-gal positive cells,"senescent IMR90 cells; Dox (doxorubicin 100 nM twice), replicate 1",76.4706%
same,SA-β-gal positive cells,"senescent IMR90 cells; Dox (doxorubicin 100 nM twice), replicate 2",84.6154%
same,SA-β-gal positive cells,"senescent IMR90 cells; Dox (doxorubicin 100 nM twice), replicate 3",66.1539%
same,SA-β-gal positive cells,"senescent IMR90 cells; Eto (etoposide 10 μM 48 h), replicate 1",80.4348%
same,SA-β-gal positive cells,"senescent IMR90 cells; Eto (etoposide 10 μM 48 h), replicate 2",71.7949%
same,SA-β-gal positive cells,"senescent IMR90 cells; Eto (etoposide 10 μM 48 h), replicate 3",70.9091%
same,rescue of phenotype of DNA damage-induced senescent cells,"senescent IMR90 cells; IMR90, 10 days after bleomycin, doxorubicin, ionizing radiation or etoposide",failed to rescue the progeria phenotype of these cells
same,SA-β-gal positive cells,"senescent IMR90 cells; IR (10 Gy), replicate 1",77.4193%
same,SA-β-gal positive cells,"senescent IMR90 cells; IR (10 Gy), replicate 2",75.5814%
same,SA-β-gal positive cells,"senescent IMR90 cells; IR (10 Gy), replicate 3",70.4545%

# Source: publication PMC10154249, “Unique progerin C-terminal peptide ameliorates Hutchinson–Gilford progeria syndrome phenotype by rescuing BUBR1” (Nature Aging, 2023)
